Data taken from PMC12040169 (PLOS Biology, 2025).
In brackets after ≈: the same amount, converted by molar mass.

What was measured:
HeLa = conditions: bulk resorufin, single well, 28.5 h, 10 µM, Bulk resorufin fluorescence
in vitro [1] = conditions: human, hela cells, % viability
in vitro [2] = test: in vitro; set-up: Viability of infected HeLa host cells, resazurin conversion, bulk resorufin fluorescence relative to DMSO; conditions: human, hela cells; bulk resorufin, mean of 3
[3] = tested on: T1, CTL2-GFP (C. trachomatis L2/434/Bu, GFP-expressing); test: microbe, parasite or virus in culture; set-up: C. trachomatis growth in HeLa, dose-response, mean of bulk GFP fluorescence and imaged total inclusion area; conditions: Chlamydia trachomatis, HeLa, 28.5 h; mean of GFP and inclusion area
T1 construct: L2/434/Bu, GFP-expressing
Text: (§1) We screened a library of 36,785 small molecules displaying drug-like properties and covering a wide chemical space (Fig 1A and S2A Data). In this process, we also complemented the assay described above with an imaging-based readout (Fig 1B). After measurements of bulk GFP and resorufin fluorescence, cells were fixed, stained with the DNA dye Hoechst, and imaged at a high-content imaging platform to detect chlamydial inclusions (GFP) and host cell nuclei (Hoechst). The total area and number of inclusions in individual wells and the number of nuclei then served as additional proxies for chlamydial growth and host cell viability. […] MICs were calculated as described above.

[4] = tested on: T1, CTL2-GFP (C. trachomatis L2/434/Bu, GFP-expressing); test: microbe, parasite or virus in culture; set-up: species or system HeLa; C. trachomatis growth in HeLa, dose-response, mean of bulk GFP fluorescence and imaged total inclusion area; conditions: Chlamydia trachomatis, 28.5 h; mean of GFP and inclusion area
Text: as §1

| SMILES | % viability (HeLa) [%] | viability at 28.5 h, 10 µM (in vitro [1]) [%] | viability at 28.5 h, 0.000416667 µM (in vitro [2]) [%] | viability at 28.5 h, 0.00125 µM (in vitro [2]) [%] | viability at 28.5 h, 0.00375 µM (in vitro [2]) [%] | viability at 28.5 h, 0.0123333 µM (in vitro [2]) [%] | viability at 28.5 h, 0.037 µM (in vitro [2]) [%] | viability at 28.5 h, 0.111 µM (in vitro [2]) [%] | viability at 28.5 h, 0.333 µM (in vitro [2]) [%] | viability at 28.5 h, 1 µM (in vitro [2]) [%] | viability at 28.5 h, 3 µM (in vitro [2]) [%] | viability at 28.5 h, 10 µM (in vitro [2]) [%] | viability at 28.5 h, 30 µM (in vitro [2]) [%] | IC50 [3] [µM] | MIC [4] [µM] |
| --- | --- | --- | --- | --- | --- | --- | --- | --- | --- | --- | --- | --- | --- | --- | --- |
| C/C(=N\O)c1cc2cc(Cl)cc(Cl)c2oc1=O [CBK288516] | 90.6 | 84.5 |  |  |  |  |  |  |  |  |  |  |  |  |  |
| COc1ccccc1N1C(=O)CC(=O)N=C1S [CBK288517] | 89.3 | 89.5 |  |  |  |  |  |  |  |  |  |  |  |  |  |
| Cc1cc(CNC(=S)NC2CCCCC2)nn1C [CBK288519] | 94 | 82.5 |  |  |  |  |  |  |  |  |  |  |  |  |  |
| COCCn1c(S)nc(=O)c2cc(C)cnc21 [CBK288520] | 92.2 | 88 |  |  |  |  |  |  |  |  |  |  |  |  |  |
| O=C1CSC(c2ccc(Br)cc2)N1O (stereo not shown) [CBK288521] | 97.7 | 89 |  |  |  |  |  |  |  |  |  |  |  |  |  |
| CCOc1ccc(CCN2C(=O)CN=C2S)cc1OCC [CBK288528] | 98.3 | 103 |  |  |  |  |  |  |  |  |  |  |  |  |  |
| Cc1ccc(Cn2cc(Br)c(NC(=O)C(=O)O)n2)cc1 [CBK288529] | 88.4 | 96.9 |  |  |  |  |  |  |  |  |  |  |  |  |  |
| COc1ccc(C(NC(=O)Cc2cn3ccsc3n2)C2CC(O)C2)cn1 (stereo not shown) [CBK306910] | 97 | 82.2 |  |  |  |  |  |  |  |  |  |  |  |  |  |
| COc1nccc(NC(c2cnn(C)c2)[C@H]2C[C@H](O)C2)c1C#N (stereo partly shown) [CBK307283] | 91.1 | 94 |  |  |  |  |  |  |  |  |  |  |  |  |  |
| OCCNc1nc(Nc2ccc(Br)cc2)nc2ccccc12 [c17e] |  |  | 95.2 | 87.1 | 86.4 | 86.4 | 88.2 | 83.5 | 88.9 | 86 | 84.9 | 81.2 | 71.2 | 1.24 | 3.14 (≈ 1.13 µg/mL) |
| COCCNc1nc2c(c(N3CCCCCC3)n1)CCNCC2 [c18e] |  |  | 113 | 109 | 109 | 108 | 110 | 106 | 107 | 102 | 108 | 101 | 103 | 1.27 | 1.94 (≈ 0.619 µg/mL) |
| CC1=C(C)C(=NNC(N)=S)C(C)=C(C)C1=NNC(N)=S [c19e] |  |  | 101 | 103 | 109 | 101 | 101 | 107 | 104 | 103 | 107 | 109 | 114 | 1.39 | 3.58 (≈ 1.11 µg/mL) |
| Cc1noc(-c2ccc3c(c2O)OCCO3)c1-c1ccc(Cl)cc1 [c20e] |  |  | 99.7 | 97 | 93.1 | 91.8 | 94.3 | 86.5 | 88.7 | 86.1 | 83.4 | 85.9 | 75.6 | 1.39 | 2.69 (≈ 0.926 µg/mL) |
| Fc1cccc(F)c1OCCOc1nc(N2CCNCC2)ccc1C(F)(F)F [c21e] |  |  | 85.4 | 87.7 | 84 | 87.6 | 84.7 | 89.9 | 90.4 | 93.9 | 87.9 | 91.3 | 0 | 1.7 | 8.28 (≈ 3.34 µg/mL) |
| O=[N+]([O-])c1ccc2[nH]c3c(c2c1)CCCC3NC1CCN(CCc2ccccc2)CC1 (stereo not shown) [c23e] |  |  | 96.2 | 90.3 | 91.9 | 88 | 86.6 | 87.4 | 90.5 | 83.9 | 93.2 | 76 | 6.18 | 2.18 | 4 (≈ 1.68 µg/mL) |
| COc1ccc(C2CC(=O)C=C(Nc3cc(Cl)ccc3O)C2)cc1 (stereo not shown) [c24e] |  |  | 94 | 92.4 | 94.1 | 84.9 | 89.8 | 84.5 | 88.6 | 85.7 | 87.6 | 83.7 | 88.4 | 2.46 | 5.71 (≈ 1.96 µg/mL) |
| COCC(=O)N[C@H]1C[C@H]2C(=O)Nc3ccc(/C=C/c4ccccc4)cc3C(=O)N2C1 [c25e] |  |  | 97.4 | 103 | 99.5 | 105 | 100 | 98.6 | 102 | 106 | 110 | 113 | 113 | 2.47 | 9.14 (≈ 3.71 µg/mL) |
| O=C(Nc1ccc(OC(F)(F)F)cc1)Nc1cc(-c2cccs2)n[nH]1 [c26e] |  |  | 104 | 100 | 99.3 | 100 | 96.1 | 106 | 106 | 108 | 105 | 103 | 96.4 | 2.5 | 3.98 (≈ 1.47 µg/mL) |
| CN(C)c1ccc(Nc2nc(NCCO)c3ccccc3n2)cc1 [c27e] |  |  | 93.3 | 89.2 | 89.8 | 89.3 | 93.2 | 89.1 | 95.3 | 89.9 | 103 | 99.4 | 110 | 2.54 | 5.04 (≈ 1.63 µg/mL) |
